Test results: patent publication US8828993B2, “Psychotropic agents having glutamate NMDA activity” (Ramot At Tel-Aviv University Ltd., priority 2006, dated 2014)
Counter-ions that a name gives are not always drawn.

What was measured:
Type in all cases: in vivo
[1] = tested on: ICR male mice; assay: Subchronic toxicity
Method: Subchronic toxicity was tested in ICR male mice. Animals (5 per group) received Compound 1 daily (10 and 20 mg/kg p.o). Animals were followed up for 7 days; weight, food intake and water intake were registered.

[2] = tested on: mice; assay: Catalepsy bar test; conditions: doses of up to 50 mg/kg i.p., scored 90 minutes later
Method: Catalepsy in mice and rats serves as a behavioral model for the manifestation of the extrapyramidal adverse effects of neuroleptics (Worm, et al., Dopamine-like activities of an aminopyridazine derivative, CM 30366. A behavioral study, Naunyn-Schmeideberg's Arch Pharmacol, 334, 246-52, 1986).
Catalepsy in mice is evaluated using a bar test. The mice were placed in the middle of a steel rod situated between two platforms with their front paws resting on the bar. Animals were injected i.p. with a vehicle or Compound 1. Animals were scored 90 minutes later for the time it took each animal to reach the platform.

[3] = tested on: amphetamine-induced hyperactivity in mice; assay: Amphetamine-induced hyperactivity and stereotypic behavior; conditions: ICR male mice
Text: The amphetamine-induced hyperactivity and motility is one of the most popular animal models for schizophrenia (Pouzet B, et al., Effects of the 5-HT(7) receptor antagonist SB-258741 in animal models for schizophrenia. Pharmacol Biochem Behav April; 71(4):655-665, 2002 and Geyer, et al., Animal behavior models of the mechanisms underlying antipsychotic atypicalicity, Progress in Neuro-Psychopharmacol & Biological Psychiatry, 27, 1071-79, 2003). Amphetamines are known to augment dopaminergic and noradrenergic neurotransmission by inducing catecholamine release and preventing catecholamine reuptake
The experiment was conducted with ICR male mice placed in individual barrels. […] The locomotor activity, number of rearings and head movements was recorded every 15 minutes for 2 h.
As stated above, the amphetamine-induced hyperactivity and motility is one of the most popular animal models for schizophrenia. The experiment was conducted with ICR male mice placed in individual barrels. Compound 1 (20 mg/kg) was administered p.o to the mice 1 hr prior to i.p. administration of amphetamine (2. mg/kg). The hyper-active behavior expressed by the number of climbings and rearings and the stereotypic behavior expressed by the number of head movements was recorded every 15 minutes over a period of 1 h.
The effect of Compound 3 (12.5, 25 and 50 mg/kg, i.p.) on amphetamine-induced hyperactivity in Balb/c mice was also examined. Animals (6 per group) were injected with Compound 3 (12.5, 25 and 50 mg/kg) and 30 minutes later received amphetamine (2 mg/kg ip). After 30 minutes, animals were exposed to an open field test for a period of 20 minutes.

[4] = tested on: mice; assay: Forced swim test (FST)
Text: This is one of the most widely used tools for screening antidepressant activity pre-clinically in acute treatment. The test was first described by Porsolt et al., (Behavioral despair in mice: a primary screening test for antidepressants. Arch. Int. Pharmacodyn. Ther. 229, pp. 327-336, 1977). The FST test is based on the observation that rats and mice develop an immobile posture when placed in an inescapable cylinder of water. This behavior is considered a behavioral despair as opposed to active form of coping with stressful conditions. The FST test is considered a good screening tool with good reliability and predictive validity.
Three parameters were defined in the evaluation of FST:
1. Immobility—defined in the traditional Porsolt test as when no additional activity is observed other than that required to keep the animal's head above water;
2. Swimming behavior—being the movement (usually horizontal) throughout the chamber that also includes crossing into another quadrant;
3. Climbing behavior—being defined as the upward-directed movements (vertical) of the forepaws along the side of the swim chamber.
The test in mice was conducted acutely (60-90 minutes post oral drug administration) and animals were dropped to the cylinder for 6 minutes and scoring was performed in the last 4 minutes after 2 minutes of adaptation.
Round glass cylinders, 18 cm in diameter and 20 cm deep were used. Water temperature was 24-28° C. Four parameters were taken: immobility, velocity, distance and strong mobility. The immobility in the animals was defined by activity lower than 10% movement of the center of gravity of the animal. Swimming was defined by the distance and the velocity of the animal, and climbing was related to strong mobility (movement of center of gravidance more than 30%).
Males Balb/c mice (Harlan Israel) were used. Animals were administered orally with Compound 1 (10 or 20 mg/kg) or with a vehicle.
Males ICR mice were used.

[5] = ICR male mice, 10 and 20 mg/kg p.o. daily, 7 days
[6] = male Balb/c mice, 10 mg/kg oral, vs vehicle

Structure (SMILES): COC(=O)C(N)CN1CCN(C2=Nc3ccccc3Nc3sc(C)cc32)CC1 (centres unmarked) [Compound 1, 2-amino-3-[4-(2-methyl-10H-thieno[2,3-b][1,5]benzodiazepin-4-yl)-piperazin-1-yl]-propionic acid, methyl ester hydrochloride salt]
- animal general behavior [1, 5]: no apparent difference
- body weight compared to control animals [1, 5]: no difference
- food intake compared to control animals [1, 5]: no difference
- tolerability [1, 5]: well tolerated
- water intake compared to control animals [1, 5]: no difference
- toxic effect ([1]; up to 20 mg/kg given for 7 days): did not cause toxic effect
- catalepsy [2]: did not induce catalepsy
- rearing behavior, compound alone compared to control animals ([3]; 20 mg/kg p.o.): increased
- increase in head movements induced by amphetamine (stereotypic behavior) ([3]; 20 mg/kg p.o. 1 hr prior to amphetamine 2 mg/kg i.p.): did not attenuate
- hyperactivity induced by amphetamine (number of climbings and rearings) ([3]; 20 mg/kg p.o. 1 hr prior to amphetamine 2 mg/kg i.p., over 1 h): effective in antagonizing
- distance moved (swimming behavior) [4, 6]: significantly increased
- strong mobility (climbing behavior) [4, 6]: significantly increased
- immobility ([4]; male Balb/c mice, 20 mg/kg oral, vs vehicle): decreased
- distance moved ([4]; male ICR mice, 20 mg/kg oral): did not modify
- immobility ([4]; male ICR mice, 20 mg/kg oral): significantly decreased
- strong mobility (climbing) ([4]; male ICR mice, 20 mg/kg oral): significantly decreased
- velocity ([4]; male ICR mice, 20 mg/kg oral): did not modify
